Data taken from US11571427B2, “Targeting the CBM signalosome complex induces regulatory T cells to inflame the tumor microenvironment” (THE GENERAL HOSPITAL CORPORATION, priority 2017, dated 2023).

Tests used:
[1] = test system: tumor tissue immune infiltrate; test: Composition of the tumor tissue immune infiltrate; assay type: in vivo, mice; conditions: 3 days of Mepazine or vehicle; FIGS. 13F-13J
Description: (§1) FIGS. 13A-13K. (FIG. 13A), MHC II expression on tumor-associated macrophages in D4M.3A-implanted F^Cre/+×C1^++, f/+ or f/f mice. (FIG. 13B), D4M.3A tumor growth in mice treated with depleting αCD8 Ab from day 8 and treated with mepazine or not from day 9. (FIG. 13C), D4M.3A tumor growth in F^Cre/+×C1^+/+ or f/f mice treated with Mepazine or vehicle starting on day 9. (FIG. 13D), YFP^+ Treg were sorted from F^Cre×C1^+/+ mice and treated with 10 μM Mepazine of vehicle for 8 or 24 hours with or without concurrent αCD3/28 mAb TCR stimulation (8 h time-point only) and expression of Foxp3, markers of eTreg differentiation, cell viability, and frequency of eTreg were recorded. (FIG. 13E), RT-qPCR analysis of expression of Foxp3 and various Treg-associated genes in whole tumor tissue lysate following 3 days of Mepazine or vehicle treatment. (FIGS. 13F-13J), Composition of the tumor tissue immune infiltrate and frequencies of CD45^+ cells (FIG. 13G) and of various immune cell subsets (FIG. 13H) as well Ki67 expression by Tconv (FIG. 13I) and MHC II expression by macrophages (FIG. 13J) following 3 days of Mepazine or vehicle treatment. (FIG. 13K), Effector cytokine co-expression by tumor-infiltrating Treg following 12 days Mepazine and αPD-1 Ab treatment. *=p<0.05, **=p<0.01, and ***=p<0.001. *, #=any p<0.05 vs. C1^+/+ and C1^+/++ Mepazine, resp. in FIG. 13C.
Preparation of single cell suspensions, antibody staining and flow cytometry. Heparinized peripheral blood collected through sub-mandibular vein puncture was treated with ACK red blood cell lysis buffer. LNs and spleens were passed through 40 μm cell strainers, followed by red blood cell lysis (spleens only). […]
(§2) Preceding antibody staining, Fc receptors were blocked with TruStain fcX (Biolegend) for 20 minutes at 4° C., followed by dead cells staining using the fixable viability violet dye […] (Biolegend) for 15 minutes at room temperature. Cells were analyzed on LSRII, LSRFortessa or LSRFortessa X-20 flow cytometers (BD Biosciences), and data were analyzed with FlowJo software version 9.9.5.

D4M.3A melanoma [2] = test: D4M.3A tumor growth in RAG1-deficient hosts; assay type: in vivo, mice; conditions: hosts lack lymphocytes, FIG. 4D
From the text: Mice. Foxp3YFP-Cre (Ref. 1), Foxp3GFP-Cre-ERT2 (Ref 2), Rosa26YFP (Ref. 4), Ifng KO (Ref.5) and C57BL/6/J mice were purchased from Jackson laboratories. […] and James J. […] Animals were housed in specific pathogen-free facilities at the Massachusetts General Hospital (MGH) and all experimental studies were approved and performed in accordance with guidelines and regulations implemented by the MGH Institutional Animal Care and Use Committee (IACUC). For survival studies the age of mice at euthanasia mandated by a moribund state of health was recorded in Kaplan Meyer plots. […] Wherever possible, animals were randomized into treatment groups. Tumor volumes were measured every second to third day after start of treatments and calculated as V=(length×width^2)/2.

D4M.3A tumor cells = test: MHC I and PD-L1 expression on tumor cells after mepazine treatment; assay type: in vivo, mice; conditions: within 3 days of mepazine; FIG. 4E
Description: (FIG. 4A) Female Foxp3^GFP-CreERT2×CARMA1^+/+ and ×CARMA1^1111 mice were implanted with D4M.3A melanoma and starting on day 9 treated with tamoxifen until the end of the experiment as well as with three doses of 200 μg of the blocking α-PD-1 antibody 29F.1A12 or isotype control antibody, and tumor growth was recorded. […] (FIGS. 4C and 4D) D4M.3A tumor growth in C57BL/6 (FIG. 4C) or RAG1-deficient hosts (FIG. 4D) treated with MALT1 inhibitors mepazine or MI-2. (FIGS. 4E-4G) Mepazine effects within 3 days on MHC I and PD-L1 expression on tumor cells (FIG. 4E), expression of genes of adaptive immune resistance (Pdl1, Socs1), MHC I antigen presentation (Tap1), IFNγ-signaling (Stat1, Irf1), T cell recruitment (CXCL10), M1 macrophage activation (Nos2), and cytotoxicity (Gzmb) (FIG. 4F), as well as the frequency of CD4^+ and CD8^+ T cells (FIG. 4G). […] All graphs show means and either individual replicates or ±SEM.
Preparation of single cell suspensions, antibody staining and flow cytometry. […]
Preceding antibody staining, Fc receptors were blocked with TruStain fcX (Biolegend) for 20 minutes at 4° C., followed by dead cells staining using the fixable viability violet dye Zombie Red (Biolegend) for 15 minutes at room temperature. Cells were analyzed on LSRII, LSRFortessa or LSRFortessa X-20 flow cytometers (BD Biosciences), and data were analyzed with FlowJo software version 9.9.5.

D4M.3A melanoma [3] = test: D4M.3A tumor growth in F^Cre/+×C1^+/+ or f/f mice treated with Mepazine or vehicle; assay type: in vivo; conditions: Mepazine from day 9, FIG. 13C
Description: as §1, with “(FIG. 13K), Effector cytokine co-expression by tumor-infiltrating Treg following 12 days Mepazine and αPD-1 Ab treatment. *=p<0.05, **=p<0.01, and ***=p<0.001. *, #=any p<0.05 vs. C1^+/+ and C1^+/++ Mepazine, resp. in FIG. 13C.” left out
Tumor growth studies and treatments. […] Tumor volumes were measured every second to third day after start of treatments and calculated as V=(length×width^2)/2. […]

Treg = test: In vitro treatment of sorted YFP+ Treg with Mepazine; assay type: cell-based, mice; conditions: 10 μM Mepazine
Description: as §1

whole tumor tissue = test: Gene expression in whole tumor tissue (RT-qPCR); assay type: in vivo, mice
Description: Quantitative RT-PCR. For analysis of gene expression, RNA was isolated (AllPrep, DNA/RNA Mini kit; Qiagen) from CD4+ GFP+ Treg sorted to >99% purity from tdFNs and tumors, or from homogenized tumor tissue, and reverse transcribed using iScript cDNA Synthesis Kit (Bio-RAD). Quantitative RT-PCR was performed using iQ SYBR green supermix (Bio-RAD) and primers: […]
Results were expressed as 2-ΔCT relative to the house keeping gene GAPDH.

tumor-infiltrating Treg = test: In situ effector cytokine expression and frequency of tumor-infiltrating Treg (flow cytometry); assay type: in vivo, mice; conditions: within 3 days of mepazine, FIG. 14K
Description: Preparation of single cell suspensions, antibody staining and flow cytometry. Heparinized peripheral blood collected through sub-mandibular vein puncture was treated with ACK red blood cell lysis buffer. LNs and spleens were passed through 40 μm cell strainers, followed by red blood cell lysis (spleens only). Tumors were minced into small fragments and treated with 1.5 mg/ml collagenase IV and 50 U/ml DNAse I for 30 min. at 37° C. under agitation.
Intracellular and nuclear proteins were stained for 60 minutes at room temperature after permeabilization and fixation (Mouse regulatory T cell staining Kit; eBioscience) using antibodies against: CD152/CTLA-4-(UC10-4B9), TNF (MP6-XT22), IL-4 (11B11), IL-17A (TC11-18H10.1), IFNγ (XMG1.2), and Ki67 (16A8) (BD Biosciences), BIM (C34C5), CARD11/CARMA1 (1D12) (Cell Signaling), Foxp3 (FJK-16s, eBioscience), GFP (rabbit polyclonal, Invitrogen). Polyclonal goat α-rabbit Ig (H+L) secondary antibody (Life Technologies) was used to reveal primary α-CARMA1 staining.
as §2
Analysis of in situ and ex vivo stimulated cytokine secretion. To detect in situ cytokine secretion, mice were slowly i.v. injected with 500 μg of fully dissolved Brefeldin A in 250 μl PBS 6 h before sacrifice and intracellular cytokine staining.

SMILES	frequency of CTL in tumor tissue [1]	frequency of NK cells in tumor tissue [1]	immune cell infiltration of tumor tissue [1]	tumor growth in Rag1-deficient mice (D4M.3A melanoma [2])	MHC I expression on tumor cells (D4M.3A tumor cells)	PD-L1-expression on tumor cells (D4M.3A tumor cells)	addition to anti-tumor effect of CARMA1-deletion in Treg (D4M.3A melanoma [3])	Foxp3 expression of Treg in vitro (Treg; 8 or 24 hours, FIG. 13D)	GITR expression of Treg in vitro (Treg; 8 or 24 hours, FIG. 13D)	effector cytokine expression of Treg in vitro (Treg; not shown)	expression of Treg-associated genes in tumor tissue (whole tumor tissue; 3 days of Mepazine or vehicle, FIG. 13E)	IFN-γ-regulated genes in whole tumor tissue (whole tumor tissue; 3 days of mepazine)	IFNγ-expression by tumor-infiltrating Treg (tumor-infiltrating Treg; in situ)	TNF-expression by tumor-infiltrating Treg (tumor-infiltrating Treg; in situ)	Treg frequency in tumor (tumor-infiltrating Treg)
CN1CCCC(CN2c3ccccc3Sc3ccccc32)C1 (stereo not shown) [mepazine]	increased	increased	generally enhanced	no effect on tumor growth	up-regulation	up-regulation	did not add to the anti-tumor effect of CARMA1-deletion in Treg	only a minor reduction	only a minor reduction	no effector cytokine expression	not altered	induction of a wide range of IFN-γ-regulated genes	rapid induction	rapid induction	did not reduce Treg frequency
COCCOc1nc(-c2ccc(Cl)c(Cl)c2)n(-c2ccc(NC(=O)CCl)cc2)n1 [MI-2]	–	–	–	no effect on tumor growth	–	–	–	–	–	–	–	–	–	–	–
